Key:
Type in all cases: in vivo
Pharbitis purpurea [1] = assay: Post-emergence herbicidal activity against PHBPU; settings: Ipomoea purpurea, 504 h, dosage 320 g/ha, rated visually after about 3 weeks
Method in brief: (§1)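 Post-emergence foliar spray of wettable-powder or emulsion-concentrate formulations (0.5% additive, 600 l/ha water) onto one-leaf-stage greenhouse plants. Percent activity scored by eye after ~3 weeks against untreated plants; 0% equals control growth, 100% equals plant death.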

Amaranthus retroflexus [2] = assay: Post-emergence herbicidal activity against AMARE; settings: Amaranthus retroflexus, 504 h, dosage 320 g/ha, rated visually after about 3 weeks
Method in brief: as §1

Avena fatua [3] = assay: Post-emergence herbicidal activity against AVEFA; settings: Avena fatua, 504 h, dosage 320 g/ha, rated visually after about 3 weeks
Method in brief: as §1

Echinochloa crus-galli [4] = assay: Pre-emergence herbicidal activity against ECHCG; settings: Echinochloa crus-galli, 504 h, dosage 80 g/ha, scored visually after about 3 weeks vs untreated controls
Method in brief: (§2)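 Seeds sown in pots and covered with soil; compounds formulated as WP or EC applied to the soil surface as aqueous suspension or emulsion with 0.5% additive at 600 l/ha water. Pots held in greenhouse; activity scored visually about 3 weeks later as % versus untreated controls (100% = dead).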

Viola tricolor [5] = assay: Pre-emergence herbicidal activity against VIOTR; settings: Viola tricolor, 504 h, dosage 80 g/ha, scored visually after about 3 weeks vs untreated controls
Method in brief: as §2

Amaranthus retroflexus [6] = assay: Pre-emergence herbicidal activity against AMARE; settings: Amaranthus retroflexus, 504 h, dosage 80 g/ha, scored visually after about 3 weeks vs untreated controls
Method in brief: as §2

Pharbitis purpurea [7] = assay: Pre-emergence herbicidal activity against PHBPU; settings: dosage 80 g/ha, scored visually after about 3 weeks vs untreated controls
Description: (§3) 1. Pre-emergence herbicidal action against harmful plants and crop plant compatibility Seeds of monocotyledonous and dicotyledonous weed plants and crop plants are placed in plastic or wood fiber pots and covered with soil. The compounds of the invention, formulated in the form of wettable powders (WP) or as emulsion concentrates (EC), are then applied onto the surface of the covering soil as aqueous suspension or emulsion with addition of 0.5% additive at a water application rate of 600 l/ha (converted). After the treatment, the pots are placed in a greenhouse and kept under good growth conditions for the trial plants. After about 3 weeks, the effect of the preparations is scored visually in comparison with untreated controls as percentages. For example, 100% activity=the plants have died, 0% activity=like control plants. [table]

Avena fatua [8] = assay: Pre-emergence herbicidal activity against AVEFA; settings: Avena fatua, 504 h, dosage 80 g/ha, scored visually after about 3 weeks vs untreated controls, read-out: Pre-emergence herbicidal activity in % against AVEVA (AVEFA)
Method in brief: as §2

Stellaria media [9] = assay: Pre-emergence herbicidal activity against STEME; settings: Stellaria media, 504 h, dosage 80 g/ha, scored visually after about 3 weeks vs untreated controls
Method in brief: as §2

Setaria viridis [10] = assay: Pre-emergence herbicidal activity against SETVI; settings: Setaria viridis, 504 h, dosage 80 g/ha, scored visually after about 3 weeks vs untreated controls
Method in brief: as §2

Lolium rigidum [11] = assay: Pre-emergence herbicidal activity against LOLRI; settings: Lolium rigidum, 504 h, dosage 80 g/ha, scored visually after about 3 weeks vs untreated controls
Method in brief: as §2

Viola tricolor [12] = assay: Post-emergence herbicidal activity against VIOTR; settings: Viola tricolor, 504 h, dosage 320 g/ha, rated visually after about 3 weeks
Method in brief: as §1

Abutilon theophrasti = assay: Post-emergence herbicidal activity against ABUTH; settings: Abutilon theophrasti, 504 h, dosage 320 g/ha, rated visually after about 3 weeks
Method in brief: as §1

Hordeum murinum [13] = assay: Pre-emergence herbicidal activity against HORMU; settings: Hordeum murinum, 504 h, dosage 80 g/ha
Method in brief: as §2

Veronica persica [14] = assay: Post-emergence herbicidal activity against VERPE; settings: Veronica persica, 504 h, dosage 320 g/ha, rated visually after about 3 weeks
Method in brief: as §1

Echinochloa crus-galli [15] = assay: Post-emergence herbicidal activity against ECHCG; settings: Echinochloa crus-galli, 504 h, dosage 320 g/ha, rated visually after about 3 weeks
Method in brief: as §1

Setaria viridis [16] = assay: Post-emergence herbicidal activity against SETVI; settings: Setaria viridis, 504 h, dosage 320 g/ha, rated visually after about 3 weeks
Method in brief: as §1

Hordeum murinum [17] = assay: Post-emergence herbicidal activity against HORMU; settings: Hordeum murinum, 504 h, dosage 320 g/ha, rated visually after about 3 weeks
Method in brief: as §1

Lolium rigidum [18] = assay: Post-emergence herbicidal activity against LOLRI; settings: Lolium rigidum, 504 h, dosage 320 g/ha, rated visually after about 3 weeks
Method in brief: as §1

Veronica persica [19] = assay: Pre-emergence herbicidal activity against VERPE; settings: Veronica persica, 504 h, dosage 80 g/ha
Method in brief: as §2

Polygonum convolvulus [20] = assay: Post-emergence herbicidal activity against POLCO; settings: Fallopia convolvulus, 504 h, dosage 320 g/ha, rated visually after about 3 weeks
Method in brief: as §1

Polygonum convolvulus [21] = assay: Pre-emergence herbicidal activity against POLCO; settings: Fallopia convolvulus, 504 h, dosage 80 g/ha, scored visually after about 3 weeks vs untreated controls
Method in brief: as §2

[22] = Pre-emergence herbicidal action against harmful plants (summary of the tables); settings: 504 h, application rate of 0.08 kg of active substance or less per hectare, read-out: herbicidal action, pre-emergence treatment (very good activity)
Description: as §3, with “plants.” for “plants. [table]”
As shown by the results, compounds according to the invention such as, for example, the compounds No. I-02 and other compounds from the tables (I-05, I-10, I-11, I-12, I-13, I-14, I-15, I-16, I-17, I-18, I-19, I-20, I-21, I-22, I-23, I-24, I-25, I-26, I-27, I-28, I-29) have, when used for pre-emergence treatment, very good activity (80% to 100% herbicidal action) against harmful plants such as Abutilon theophrasti, Alopecurus myosuroides, Amaranthus retroflexus, Avena fatua, Cyperus esculentus, Echinochloa crus-galli, Hordeum murinum, Lolium rigidum, Pharbitis purpurea, Polygonum convolvulus, Setaria viridis, Stellaria media, Veronica persica and Viola tricolor at an application rate of 0.08 kg of active substance or less per hectare.

Stellaria media [23] = assay: Post-emergence herbicidal activity against STEME; settings: Stellaria media, 504 h, dosage 320 g/ha, rated visually after about 3 weeks
Method in brief: as §1

Alopecurus myosuroides [24] = assay: Pre-emergence herbicidal activity against ALOMY; settings: Alopecurus myosuroides, 504 h, dosage 80 g/ha, scored visually after about 3 weeks vs untreated controls
Method in brief: as §2

Alopecurus myosuroides [25] = assay: Post-emergence herbicidal activity against ALOMY; settings: Alopecurus myosuroides, 504 h, dosage 320 g/ha, rated visually after about 3 weeks
Method in brief: as §1

SMILES | pest or weed control at 320 g/ha (Pharbitis purpurea [1]) [%] | pest or weed control at 320 g/ha (Amaranthus retroflexus [2]) [%] | pest or weed control at 320 g/ha (Avena fatua [3]) [%] | pest or weed control at 80 g/ha (Echinochloa crus-galli [4]) [%] | pest or weed control at 80 g/ha (Viola tricolor [5]) [%] | pest or weed control at 80 g/ha (Amaranthus retroflexus [6]) [%] | Pre-emergence herbicidal activity in % against PHBPU (Pharbitis purpurea [7]) [%] | pest or weed control at 80 g/ha (Avena fatua [8]) [%] | pest or weed control at 80 g/ha (Stellaria media [9]) [%] | pest or weed control at 80 g/ha (Setaria viridis [10]) [%] | pest or weed control at 80 g/ha (Lolium rigidum [11]) [%] | pest or weed control at 320 g/ha (Viola tricolor [12]) [%] | pest or weed control at 320 g/ha (Abutilon theophrasti) [%] | pest or weed control at 80 g/ha (Hordeum murinum [13]) [%] | pest or weed control at 320 g/ha (Veronica persica [14]) [%] | pest or weed control at 320 g/ha (Echinochloa crus-galli [15]) [%] | pest or weed control at 320 g/ha (Setaria viridis [16]) [%] | pest or weed control at 320 g/ha (Hordeum murinum [17]) [%] | pest or weed control at 320 g/ha (Lolium rigidum [18]) [%] | pest or weed control at 80 g/ha (Veronica persica [19]) [%] | other results
C=C[C@]1(C(=O)N[C@@H]2CO[C@H](C(=O)NOC(C)C)C2)CC(c2cc(F)cc(F)c2)=NO1 (mixture of isomers) [Example I-13, (5S)-3-(3,5-difluorophenyl)-N-[cis-5-(isopropoxycarbamoyl)tetrahydrofuran-3-yl]-5-vinyl-4H-isoxazole-5-carboxamide] | 80 | 80 | 90 | 100 | 100 | 100 | 90 | 100 | 100 | 100 | 100 | 80 | 80 | 100 | 80 | 90 | 90 | 90 | 90 | 90 | pest or weed control at 320 g/ha (Polygonum convolvulus [20]): 80%; pest or weed control at 80 g/ha (Polygonum convolvulus [21]): 100%; pest or weed control at 80 g/ha [22]: 80 to 100%; pest or weed control at 320 g/ha (Stellaria media [23]): 90%; pest or weed control at 80 g/ha (Alopecurus myosuroides [24]): 100%; pest or weed control at 320 g/ha (Alopecurus myosuroides [25]): 90%
C=C[C@]1(C(=O)N[C@@H]2CO[C@H](C(=O)NC3CC3)C2)CC(c2cc(F)cc(F)c2)=NO1 (mixture of isomers) [Example I-18, (5S)—N-[cis-5-(cyclopropylcarbamoyl)tetrahydrofuran-3-yl]-3-(3,5-difluorophenyl)-5-vinyl-4H-isoxazole-5-carboxamide] | 90 | 90 | 90 | 90 | 100 | 100 | 90 | 90 | 100 | 100 | 100 | 80 | 90 | 100 | 80 | 90 | 90 | 90 | 90 | 90 | pest or weed control at 320 g/ha (Polygonum convolvulus [20]): 90%; pest or weed control at 80 g/ha (Polygonum convolvulus [21]): 100%; pest or weed control at 80 g/ha [22]: 80 to 100%; pest or weed control at 320 g/ha (Stellaria media [23]): 90%; pest or weed control at 80 g/ha (Alopecurus myosuroides [24]): 100%; pest or weed control at 320 g/ha (Alopecurus myosuroides [25]): 90%

— patent US11613522B2, “Herbicidally active 3-phenylisoxazoline-5-carboxamides of tetrahydro- and dihydrofurancarboxamides” (BAYER AKTIENGESELLSCHAFT, priority 2017, dated 2023)
